Entries after “also recorded” stand apart in the source; their conditions may differ. Marks after values point to notes of the source that are not given here.
What was measured:
[1] = Pharmacokinetic studies: plasma concentrations of pomalidomide in KS patients (HPLC with fluorescence detection); type: in vivo, human
Experimental: A non-compartmental analysis was used to calculate plasma pharmacokinetic parameters (Pharsight Corp, Mountain View, Calif.). The maximum plasma concentration (CMAX) and time to CMAX (TMAX) were recorded as observed values; the area under the plasma concentration vs time curve (AUC) was calculated using the log-linear trapezoidal method. For day 1 of cycle 1 (C1D1), the AUC extrapolated to infinity (AUCINF) was used, unless the percent extrapolated exceeded 25%, in which case AUCLAST (to the last quantifiable time point) was used. The steady-state exposure on C1D15 was calculated using AUCLAST.
Pharmacokinetic Studies were performed pre-dose on cycle 1 day 1 and day 15. Across all analyzed doses: TMAX=2.71±1.73 hrs, T1/2=7.10±2.48 hours, and CMAX=61.21±29.30 ng/mL. […] Comparing HIV infected with non-infected subjects, for CMAX at C1D1 p=0.45, at C1D15 p=0.80 at C1D15 and comparing changes from baseline p=0.91; for AUCLAST at C1D1, p=0.63; at C1D15 p=0.97 and comparing changes from baseline p=0.91.

[2] = Safety and tolerability of pomalidomide in KS patients; type: in vivo, human
Experimental: (§1) Aspirin at 81 mg daily was administered as thromboprophylaxis. Assessments were performed every 4 weeks for lymphocyte numbers, Kaposi sarcoma associated herpesvirus (KSHV/HHV8) viral load (VL) and HIV VL and at 8 weeks for T cell subsets and activation by immunophenotyping of peripheral blood mononuclear cells (PBMC). KSHV VL in PBMC and HIV VL in plasma were assayed by quantitative PCR; an ultrasensitive single copy assay was used for HIV VL. Changes from baseline were evaluated using the Wilcoxon signed rank test with P<0.005 considered significant given multiple comparisons. Differences in changes between the HIV infected and uninfected groups were evaluated using the Wilcoxon rank sum test. Median time of the patients on therapy 7 cycles (range 2-12).
Subsequent cycles commenced on day 29. In certain cases cycles were commenced when ANC was ≥1000 cells/mm3, hemoglobin≥10 g/dL, platelets≥50,000 cells/mm3 and otherwise held until these thresholds were met. […] HIV-infected patients continued baseline ART without adjustment. Prophylaxis for opportunistic infections including Pneumocystis jiroveci was administered following current guidelines.

[3] = test system: lymphocyte subsets; assay: Immunologic correlatives: lymphocyte numbers and T cell subsets/activation by immunophenotyping of PBMC; type: in vivo, human; settings: for CD4 and CD8 counts: week 4 and week 8 of therapy
Experimental: as §1
(§2) Laboratory Assays: Lymphocyte subsets were assessed by fluorescent-activated cell sorting using the BlueOcean platform (Beckman Coulter, Carlsbad, Calif.). Plasma HIV-1 […] was evaluated using an ultrasensitive assay whose sensitivity was 1 viral copy per plasma volume. Briefly, a triplex PCR was used using a modification of a previously reported assay with three primers: one spanning the start codon of gag, one in the gag coding region, and one internal control. Samples were tested from 6 mL plasma aliquots, with 12 replicants per sample. KSHV VL in peripheral blood mononuclear cells (PBMC) was assessed by quantitative real-time PCR.
(§3) Changes in immunologic and virologic parameters were evaluated by a Wilcoxon signed rank test. Exact Wilcoxon rank sum tests were used to compare pharmacokinetic parameters at each time point and differences from baseline. All p-values are two-tailed and reported without adjustment for multiple comparisons. HRQL was analyzed using a using a mixed model repeated measures analysis for FAHI and the marginal homogeneity test for KS-specific questions

[4] = test system: Kaposi sarcoma associated herpesvirus (KSHV/HHV8); assay: KSHV viral load in PBMC by quantitative real-time PCR; type: in vivo
Experimental: as §1, §2, §3

[5] = test system: MHC-1; assay: Butyrate induced (lytic KSHV activation) MHC-1 down-regulation in BCBL-1 cells, FACS and Western blot; type: cell-based; settings: pretreatment 24 h before butyrate
Experimental: In addition, the effect of the immunomodulatory drugs on KSHV down-regulation of MHC-1 during lytic activation was investigated by FACS analysis after pretreating the cells with Immunomodulatory drugs prior to lytic activation with butyrate.
Flow Cytometry Analysis and Antibodies: For flow cytometry analysis of MHC-I expression, cells were plated at 400,000 cells/mL and pretreated with immunomodulatory agents as indicated. After twenty-four hours, cells were treated with butyrate at indicated amounts to induce lytic activation and down-regulation of MHC-I. After another twenty-four hours, cells were analyzed on FACS and extracts were prepared as indicated. For flow cytometry analysis, the cells, 1×105 per sample, were incubated with indicated conjugated monoclonal antibodies for 30 min at 4° C. After washing twice with PBS, cells were resuspended in PBS and flow cytometry analysis was performed with a FACSCalibur. FITC-conjugated antibodies to anti-HLA MHC Class I (Sigma-Aldrich) and PE-conjugated antibodies to anti-DR MHC Class II (BioLegend) were used for flow cytometry.

[6] = test system: MHC-1; assay: K3/K5 mediated MHC-1 down-regulation in K3 or K5 transfected KSHV-negative BJAB cells; type: cell-based
Experimental: FIGS. 9A-9E. […] 24 hours after electroporation, FACS analysis was done using half of the cells. […] The remaining cells were subjected to lysis, protein extraction, and western blot. Blots were probed with antibodies to the indicated proteins.

[7] = patients; approved dose 4 mg; cited from earlier work
[8] = human, po, plasma, across all analyzed doses, cycle 1 day 1 and day 15, 5 mg orally
[9] = 5 mg per day for 21 days of 28 day cycles

Structure (SMILES): Nc1cccc2c1C(=O)N(C1CCC(=O)NC1=O)C2=O (stereo not drawn) [pomalidomide, 4-amino-2-(2,6-dioxopiperidin-3-yl)isoindoline-1,3-dione]
- accumulation ([1]; from day 1 to day 15): No evidence of accumulation
- differences in pharmacokinetics by ART regimen ([1]; human, in vivo): No significant differences
- differences in pharmacokinetics by HIV status ([1]; human, in vivo): No significant differences
- Tmax [1, 8]: 2.71 ± 1.73 h
- half-life [1, 8]: 7.1 ± 2.48 h
- Cmax ([1]; plasma, across all analyzed doses, cycle 1 day 1 and day 15, 5 mg orally): 61.21 ± 29.30 ng/mL
- adverse events, severity [2, 9]: generally mild, self limited, or reversible following therapy
- dose limiting events [2, 9]: No dose limiting events
- tolerability ([2]; both cohorts): well tolerated
- cessation of therapy for adverse effect ([2]; exacerbation of pre-existing anxiety): One subject ceased therapy for adverse effect
- common adverse events ([2]; generally mild and self-limited, or resolved following cessation of therapy): neutropenia, constipation, anemia not requiring transfusion, fatigue, and rash
- unplanned hospitalizations, febrile neutropenia, thromboembolic events ([2]; with aspirin 81 mg daily thromboprophylaxis): No unplanned hospitalizations, no febrile neutropenia, and no thromboembolic events
- CD19 B-cells ([3]; during therapy): decline; also recorded: reversible decrease
- NK cells ([3]; during therapy): no significant change
- Ki67 or PD-1 expression in CD4 or CD8 cells ([3]; in vivo): no significant changes
- difference between HIV infected and uninfected patient groups in observed effects (cell number and phenotype) ([3]; in vivo): no significant difference
- CD3 (cells/μL) Change to End Therapy (Med, range) ([3]; median change from baseline): +11 cells/μL
- CD3 (cells/μL) Change to Week 8 (Med, range) ([3]; median change from baseline): +190 cells/μL
- CD4 (cells/μL) Change to End Therapy (Med, range) ([3]; median change from baseline): −46 cells/μL
- CD4 (cells/μL) Change to Week 8 (Med, range) ([3]; median change from baseline): +40 cells/μL
- CD8 (cells/μL) Change to End Therapy (Med, range) ([3]; median change from baseline): 104 cells/μL
- CD8 (cells/μL) Change to Week 8 (Med, range) ([3]; median change from baseline): +142 cells/μL
- CD19 (cells/μL) Change to End Therapy (Med, range) ([3]; median change from baseline): −87 cells/μL
- CD19 (cells/μL) Change to Week 8 (Med, range) ([3]; median change from baseline): −70 cells/μL
- NK (cells/μL) Change to End Therapy (Med, range) ([3]; median change from baseline): 10 cells/μL
- NK (cells/μL) Change to Week 8 (Med, range) ([3]; median change from baseline): −6 cells/μL
- CD19 (cells/μL) Change to Week 4 (Med, range) ([3]; median change from baseline 141): −35 cells/μL
- NK (cells/μL) Change to Week 4 (Med, range) ([3]; median change from baseline 178): +23 cells/μL
- CD4 (cells/μL) Change to Week 4 (Med, range) ([3]; median change from baseline 440): +108 cells/μL
- CD8 (cells/μL) Change to Week 4 (Med, range) ([3]; median change from baseline 500): +101 cells/μL
- CD3 (cells/μL) Change to Week 4 (Med, range) ([3]; median change from baseline 1184): +275 cells/μL
- CD4 Subsets 38+ DR+: Absolute Change in % at Week 8 (med, range) ([3]; median, baseline 2.5 %): +2%
- CD4 Subsets RO− 27− (E): Absolute Change in % at Week 8 (med, range) ([3]; median, baseline 3.3 %): −1.5%
- CD4 Subsets 57+: Absolute Change in % at Week 8 (med, range) ([3]; median, baseline 6.3 %): −1.34%
- CD8 Subsets 38+ DR+: Absolute Change in % at Week 8 (med, range) ([3]; median, baseline 8.0 %): +8.5%
- CD4 Subsets HLA DR+: Absolute Change in % at Week 8 (med, range) ([3]; median, baseline 8.9 %): +8.3%
- CD4 Subsets RO+ 27− (EM): Absolute Change in % at Week 8 (med, range) ([3]; median, baseline 16.7 %): +1.7%
- CD8 Subsets RO+ 27+ (CM): Absolute Change in % at Week 8 (med, range) ([3]; median, baseline 17.1 %): +8.1%
- CD8 Subsets RO+ 27− (EM): Absolute Change in % at Week 8 (med, range) ([3]; median, baseline 18.4 %): +1.0%
- CD8 Subsets HLA DR+: Absolute Change in % at Week 8 (med, range) ([3]; median, baseline 19.6 %): +11.6%
- CD8 Subsets RO− 27+ (N): Absolute Change in % at Week 8 (med, range) ([3]; median, baseline 21.0 %): −5.1%
- CD8 Subsets 57+: Absolute Change in % at Week 8 (med, range) ([3]; median, baseline 30.8 %): −11.0%
- CD8 Subsets RO− 27− (E): Absolute Change in % at Week 8 (med, range) ([3]; median, baseline 31.8 %): −6.1%
- CD4 Subsets RO− 27+ (N): Absolute Change in % at Week 8 (med, range) ([3]; median, baseline 32.6 %): −6.6%
- CD8 Subsets 38+: Absolute Change in % at Week 8 (med, range) ([3]; median, baseline 33.4 %): +19.9%
- CD4 Subsets 38+: Absolute Change in % at Week 8 (med, range) ([3]; median, baseline 34.5 %): +4.3%
- CD4 Subsets RO+ 27+ (CM): Absolute Change in % at Week 8 (med, range) ([3]; median, baseline 41.9 %): +6.4%
- CD4 and CD8 counts [3]: Significant increases
- CD4 and CD8 counts ([3]; listed as Pomalidomide): significant increases
- activation (CD38+, HLADR+ and DR+/38+) of CD4 and CD8 T-cells ([3]; week 8): significant increases
- senescence (CD57+) of CD4 and CD8 T-cells ([3]; week 8): decreases
- KSHV VL (copies/PBMC) Change to End Therapy (Med, range) ([4]; median change from baseline): 0 copies/PBMC
- KSHV VL (copies/PBMC) Change to Week 8 (Med, range) ([4]; median change from baseline): 0 copies/PBMC
- KSHV VL (copies/PBMC) Change to Week 4 (Med, range) ([4]; median change from baseline 0): 0^† copies/PBMC
- subjects whose KSHV VL became detectable from undetectable ([4]; week 4, 8 subjects): 35%
- subjects showing an increase in KSHV VL in PBMCs ([4]; week 4, 10 subjects): 45%
- KSHV VL ([4]; week 4, not sustained at week 8): transient increase; also recorded: significant increase
- down-regulation of MHC Class I expression upon lytic KSHV activation ([5]; FIGS. 7A-7C and FIG. 8): inhibits MHC-1 down-regulation
- down-regulation of MHC Class I expression upon lytic KSHV activation ([5]; FIGS. 7A-7C and FIG. 8, listed as Pomalidomide): substantially more effective at preventing the down-regulation
- down-regulation of MHC-1 by plasmids encoding K3 or K5 ([6]; 10 μM for 48 hours before electroporation): prevented
- prevention of MHC I knockdown, FACS analysis with K5 ([6]; 10 μM for 48 hours, GFP-positive cells): not consistently observed
- MHC I knockdown, western blots ([6]; 10 μM for 48 hours, K3 or K5 plasmids): preventing MHC I knockdown
- Plasma Serum Concentration [7]: 300 nM
